Tests used:
[1] = tested on: neurons; conditions: study found in the literature; crocetin pretreatment; cited from earlier work
[2] = Behaviour of TSC under acidic conditions (stomach); type: physicochemical
From the text: TSC is precipitated under acidic conditions, such as those which exist in the stomach. […] TSC is not stable in acidic conditions and will be converted to the cis isomer which can precipitate. A system has been devised that will protect TSC in the harsh, acidic environment of the stomach and release TSC in a more favorable pH region. A more favorable pH does exist in the small intestines. […] See Examples below. TSC's effectiveness is believed to be dependant on the TSC concentrations levels found in the body. The effectiveness of TSC can be prolonged by administering TSC orally. […] TSC must be protected from the harsh environment of the stomach and be release in a more favorable, higher pH region of the small intestine. For this study, tablets of TSC were made (Table 1) and were enterically coated with either Eudragit L100 or cellulose acetate phthalate (CAP). The integrity of both types of protective coatings were confirmed in a USP dissolution study in which enterically coated tablets were first place in a dissolution cell containing simulated gastric fluid (SGF), then transferred to another cell containing simulated intestinal fluid (SIF). […] This study was performed according to USP protocols.

[3] = Intestinal (jejunum) absorption of TSC and effect of gamma cyclodextrin; type: in vivo; conditions: rat jejunum; approx. 60 mg/kg TSC; TSC:gamma cyclodextrin 0.5:1 up to 4:1 (wt:wt); FIG. 2
Method: (§1) Male Sprague-Dawley (SD) and Wistar rats weighing approximately 300-400 g each were fasted for 24 hours prior to each experiment. Water was given ad libitum and coprophagy was prevented by using cages with wire-mesh floors. Anesthesia was induced and maintained with isoflurane. The carotid artery was exposed and cannulated with PE-50 tubing. The cannula was secured using silk sutures and 2% lidocaine was applied to the wound.
Following cannulation, a front midline […] was made, exposing the abdomen and intestinal segments. In this study, the jejunum was isolated and the TSC formulation was administered in the proximal jejunum. Approximately 60 mg/kg TSC was administered at various gamma cyclodextrin ratios of 0.5:1 up to 4:1 (wt. TSC:wt. gamma cyclodextrin). Movement of TSC within the intestinal segments was not restricted distal to the site of administration. The intestine was replaced and the abdomen closed with sutures. Approximately 0.3 mL blood samples were taken for the carotid artery at discrete time intervals following TSC administration. A small amount of sodium heparin was used as an anticoagulant. The blood samples were centrifuged and the resulting plasma volume mixed with 3 volumes of methanol and vortexed. The plasma mixture was then centrifuged and the supernatant was analyzed by HPLC to determine TSC levels.

[4] = Scalability for Cmax: TSC with gamma cyclodextrin 1:1 in jejunum; type: in vivo; conditions: rat jejunum; 2.5, 5, 10 and 60 mg/kg TSC; TSC:gamma cyclodextrin 1:1; FIG. 4
Method: The dosage of TSC used in the above study is large, therefore, additional doses of TSC were administered with gamma cyclodextrin at a ratio of 1:1 (wt. TSC:wt. gamma cyclodextrin) in order to determine the scalability of systemic absorption (in terms of Cmax) with respect to TSC dosing amount. For the following study, TSC was administered to the jejunum intestinal segment at the following dosages: 2.5, 5, 10, and 60 mg/kg.
as §1, with “For this study, male” for “Male”
Following cannulation, a front midline […] was made, exposing the abdomen and intestinal segments. In this study, the jejunum was isolated and the TSC formulation was administered in the proximal jejunum. Movement of TSC within the intestinal segments was not restricted distal to the site of administration. The intestine was replaced and the abdomen closed with sutures. […] The plasma mixture was then centrifuged and the supernatant was analyzed by HPLC to determine TSC levels.

[5] = tested on: neurons; experiment: Rat model of hemorrhagic stroke (collagenase), neuronal death; type: in vivo; conditions: TSC injected starting 3 hours after collagenase, sacrifice at 48 hours
Method: The first study in which this was done was one conducted using a rat model of hemorrhagic stroke. […] TSC was then injected starting 3 hours after the collagenase was administered, and the animals were sacrificed 48 hours after the administration of the collagenase.
When there is a hemorrhage in the brain, the blood pools and forms a hematoma. Around the periphery of this hematoma, there is a death of neuronal cells. […] Use of the stain, fluorojade, allows one to count the numbers of “dead” neurons in a given brain section of the brain. This was done in the area around the hematomas formed in the hemorrhagic stroke rat model.

[6] = tested on: neurons; experiment: Rat model of Parkinson's disease (6-OHDA), pretreatment, live neuron counts; type: in vivo; conditions: TSC 0.1 mg/kg for 7 days preceding 10 μg 6-OHDA; sacrifice 4 weeks later; FIG. 8
Method: Another model that was used examined the effect of TSC on neuronal viability is a rat model of Parkinson's disease. In this model, a burr hole is drilled through the skull and into the region of the substantia nigra. The Parkinson's-like condition is induced by injecting 6-hydroxydopamine (6-OHDA) into the brain. An amount of 10 μg of 6-OHDA is frequently injected in this model, and was used in the first study.
In the study, TSC was injected at a dosage of 0.1 mg/kg for 7 days preceding the injection of the 6-OHDA (the same dosing regimen as had been done in the crocetin study). Following the injection of the 6-OHDA, no further treatments were given over the next 4 weeks.
At that time the rats were sacrificed and the brains removed and sent to Charles River Laboratories for counts of live neurons. […] This allowed the comparison of cell death (treated side count/untreated side count) of the controls, which had been pretreated with saline, to the animals pretreated with TSC.

[7] = tested on: neurons; experiment: Rat model of Parkinson's disease (6-OHDA), post-treatment, live neuron counts; type: in vivo
Method: It is of much more interest to know the effect of post-treatment on neuronal death following the injection of 6-OHDA. To investigate that, 5 μg of 6-OHDA were again injected into the substantia nigra as before, but the treatment began following that injection. The animals were then given daily injections of TSC (0.25 mg/kg) for 4 weeks before sacrifice. The brains were removed and sent to Charles River Laboratories for neuronal counts.

[8] = tested on: B16 (mouse melanoma) cells; experiment: Pulmonary metastasis mouse model, B16 tumor counts in lungs; type: in vivo
From the text: The pulmonary metastasis mouse model is a widely used model for the evaluation of tumor therapy. With B16 (mouse melanoma) cells, essentially all cells “take” upon intravenous cell injection in the tail vein, and the tumors are preferentially formed in the lungs. Thus, the term pulmonary metastasis is widely used even though every resulting pulmonary nodule is technically an independent “primary” tumor rather than a true metastasis.
There is always a fraction of nodules that is amelanotic (“white”) though, and this requires careful counting in order not to underestimate the tumor burden.
For the subject studies, eight-week-old female C57BL/6 mice were obtained from Charles River Laboratories. The mice were housed in groups of 5 or fewer, and received food and water ab libitum.
B16 cells were cultured by the Center for Cell Signaling of the University of Virginia using a standard protocol. The cells were received while they were in an exponential growth phase. The cells were supplied at a concentration of 5×10^5 cells/mL in Hank's buffered salt solution (HBSS).
The cells were injected immediately upon receipt, and this day was designated as Day 0. On Day 0, all of the mice were injected intravenously in the tail vein with 0.1 mL of the cell suspension, meaning that each mouse received 0.5×10^5 cells. The mice were then left alone until Day 4.
On Day 4, the mice were divided into two groups: Group A, consisting of 5 mice, received an intravenous injection of 0.05 mL of saline in the tail vein. Group B, composed of 7 mice, received an intravenous injection of 0.05 mL of a TSC solution in the tail vein, for a TSC dosage of 0.142 mg/kg/day. The same injections were repeated on Days 5-8 and on Days 11-15. On Day 18, the mice were sacrificed using carbon dioxide. The lungs were excised, rinsed and placed in Fekete's Solution and stored at room temperature.
Later, the lungs were assessed visually, in random, blinded order, to obtain a visual count of the numbers of tumors. […] Thus, the tumors were counted visually in two separate groups: small tumors and medium/large tumors. Although the majority of the tumors were black, there were also some white tumors.

[9] = C57BL/6 mice lungs Day 18, TSC 0.142 mg/kg/day iv, N 7
[10] = mean±standard deviation, C57BL/6 mice lungs Day 18, TSC 0.142 mg/kg/day iv, N 7

| Structure (SMILES) | effect of pretreatment on neuronal death following 10 μg 6-OHDA [1] | solubility in the acidic environment of the stomach ([2]; TSC is precipitated) | stability in acidic conditions ([2]; converted to the cis isomer) | effect of γ-cyclodextrin on absorption of TSC [3] | linear regression of Cmax versus TSC dosage [4] | less death of the neurons around the periphery of the hematoma [5] | less neuronal death, fluorojade count of dead neurons around the hematomas ([5]; FIG. 7) | percentage of live neurons (treated side count/untreated side count) vs saline controls [6] | more live neurons vs saline ([7]; 5 μg 6-OHDA, daily TSC 0.25 mg/kg for 4 weeks after injection, p<0.05, FIG. 9) | effect on viability of live neurons, non-6-OHDA side of the brain ([7]; daily TSC 0.25 mg/kg for 4 weeks vs saline, FIG. 10) | Small tumors med. ([8]; C57BL/6 mice lungs Day 18, TSC 0.142 mg/kg/day iv Days 4-8 and 11-15, N 7) | Medium/Large tumors med. [8, 9] | Total tumors med. [8, 9] | statistical difference of tumor counts, TSC group vs saline group ([8]; Day 18, large standard deviations) | Medium/Large tumors mean [8, 10] | Small tumors mean [8, 10] | Total tumors mean [8, 10] |
| --- | --- | --- | --- | --- | --- | --- | --- | --- | --- | --- | --- | --- | --- | --- | --- | --- | --- |
| CC(/C=C/C=C(\C)C(=O)O)=C\C=C\C=C(C)\C=C\C=C(/C)C(=O)O [crocetin] | beneficial effect |  |  |  |  |  |  |  |  |  |  |  |  |  |  |  |  |
| CC(/C=C/C=C(\C)C(=O)[O-])=C\C=C\C=C(C)\C=C\C=C(/C)C(=O)[O-].[Na+].[Na+] [TSC, trans sodium crocetinate] |  | practically insoluble | not stable | greatly enhances | excellent fit | about 20% | approximately 30% | approximately doubled | about 20% | no effect | 18 | 19 | 34 | not statistically different | 30 ± 24 | 32 ± 29 | 62 ± 53 |

— patent US11491129B2, “Oral formulations of bipolar trans carotenoids” (priority 2010, dated 2022)
